Molecular target: T1, human LPA1 (Homo sapiens, UniProt Q92633)
T1 construct: the full-length cDNA for human LPA1 was obtained by PCR of the reverse transcription reaction; expressed in transfected cells
Assay: HLPA1 Ca Flux assay (LPA1 calcium flux assay)
Type: cell-based
Settings: CHO cells stably expressing human LPA1; stimulated by 10 nM LPA; intracellular Ca2+
Method: A 1.1 kb cDNA encoding the human LPA1 receptor was cloned from human lung. Human lung RNA (Clontech Laboratories, Inc. USA) was reverse transcribed using the RETROscript kit (Ambion, Inc.) and the full-length cDNA for human LPA1 was obtained by PCR of the reverse transcription reaction. The nucleotide sequence of the cloned human LPA1 was determined by sequencing and confirmed to be identical to the published human LPA1 sequence (An et al. Biochem. Biophys. Res. Commun. 231:619 (1997). The cDNA was cloned into the pCDNA5/FRT expression plasmid and transfected in CHO cells using lipofectamine 2000 (Invitrogen Corp., USA). Clones stably expressing human LPA1 were selected using hygromycin and identified as cells that show Ca-influx in response to LPA.
Human LPA1 or LPA3 expressing CHO cells are seeded at 20,000-45,000 cells per well in a 96-well poly-D-lysine coated plate one or two days before the assay. Prior to the assay, the cells are washed once with PBS and then cultured in serum-free media overnight. On the day of the assay, a calcium indicator dye (Calcium 4, Molecular Devices) in assay buffer (HBSS with Ca^2+ and Mg^2+ and containing 20 mM Hepes and 0.3% fatty-acid free human serum albumin) is added to each well and incubation continued for 1 hour at 37° C. 10 μl of test compounds in 2.5% DMSO are added to the cells and incubation continued at room temperature for 30 minutes. Cells are the stimulated by the addition of 10 nM LPA and intracellular Ca^2+ measured using the Flexstation 3 (Molecular Devices). IC50s are determined using Graphpad prism analysis of drug titration curves.

T1 sequence (Q92633 whole entry): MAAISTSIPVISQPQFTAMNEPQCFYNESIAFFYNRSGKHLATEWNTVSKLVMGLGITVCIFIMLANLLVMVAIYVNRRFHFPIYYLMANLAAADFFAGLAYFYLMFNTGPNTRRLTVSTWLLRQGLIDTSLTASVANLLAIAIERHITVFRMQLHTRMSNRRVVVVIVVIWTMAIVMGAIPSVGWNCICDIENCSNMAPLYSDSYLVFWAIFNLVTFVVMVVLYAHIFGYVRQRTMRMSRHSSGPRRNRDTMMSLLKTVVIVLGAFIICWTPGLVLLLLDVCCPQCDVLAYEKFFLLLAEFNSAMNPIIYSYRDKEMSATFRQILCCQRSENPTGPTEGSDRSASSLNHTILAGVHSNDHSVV

IC50 [nM] | SMILES
< 300 | Cc1noc(-c2ccc(C#CCCC(=O)O)cc2)c1NC(=O)OC(C)c1ccccc1Cl (centres unmarked) [Compound 1-1, 5-(4-{4-[1-(2-Chloro-phenyl)-ethoxycarbonylamino]-3-methyl-isoxazol-5-yl}-phenyl)-pent-4-ynoic acid]
< 300 | Cc1noc(-c2ccc(C#CCn3cncn3)cc2)c1NC(=O)OC(C)c1ccccc1Cl (centres unmarked) [Compound 3-1]
300 to 1000 | Cc1noc(-c2ccc(C#CCn3cc(C(=O)O)cn3)cc2)c1NC(=O)OC(C)c1ccccc1Cl (centres unmarked) [Compound 2-2, 1-[3-(4-{4-[1-(2-Chloro-phenyl)-ethoxycarbonylamino]-3-methyl-isoxazol-5-yl}-phenyl)-prop-2-ynyl]-1H-pyrazole-4-carboxylic acid]
< 300 | Cc1noc(-c2ccc(C#CCCCCC(=O)O)cc2)c1NC(=O)OC(C)c1ccccc1Cl (centres unmarked) [Compound 1-3, 7-(4-{4-[1-(2-Chloro-phenyl)-ethoxycarbonylamino]-3-methyl-isoxazol-5-yl}-phenyl)-hept-6-ynoic acid]
> 1000 | Cc1noc(-c2ccc(C#CCn3ncc(C(=O)O)c3C(F)(F)F)cc2)c1NC(=O)OC(C)c1ccccc1Cl (centres unmarked) [Compound 2-1, 1-[3-(4-{4-[1-(2-Chloro-phenyl)-ethoxycarbonylamino]-3-methyl-isoxazol-5-yl}-phenyl)-prop-2-ynyl]-5-trifluoromethyl-1H-pyrazole-4-carboxylic acid]
< 300 | Cc1noc(-c2ccc(C#CCn3cnc(C(=O)O)c3)cc2)c1NC(=O)OC(C)c1ccccc1Cl (centres unmarked) [Compound 2-3, 1-[3-(4-{4-[1-(2-Chloro-phenyl)-ethoxycarbonylamino]-3-methyl-isoxazol-5-yl}-phenyl)-prop-2-ynyl]-1H-imidazole-4-carboxylic acid]
< 300 | Cc1noc(-c2ccc(C#CCC(C)(C)C(=O)O)cc2)c1NC(=O)OC(C)c1ccccc1Cl (centres unmarked) [Compound 1-4, 5-(4-{4-[1-(2-Chloro-phenyl)-ethoxycarbonylamino]-3-methyl-isoxazol-5-yl}-phenyl)-2,2-dimethyl-pent-4-ynoic acid]
< 300 | Cc1noc(-c2ccc(C#CCCCC(=O)O)cc2)c1NC(=O)OC(C)c1ccccc1Cl (centres unmarked) [Compound 1-2, 6-(4-{4-[1-(2-Chloro-phenyl)-ethoxycarbonylamino]-3-methyl-isoxazol-5-yl}-phenyl)-hex-5-ynoic acid]

Source: patent publication US8455499B2, “Alkyne antagonists of lysophosphatidic acid receptors” (Amira Pharmaceuticals, Inc., priority 2008, dated 2013)
